A short description of the experiment: Growth inhibition in human NCI60 cells. As to conditions: for TGI: read-out: Log TGI (converted). Type of experiment: functional.

Each structure is given as a SMILES string.

By GI50 is commonly meant the concentration that inhibits growth by half. By LC50 is commonly meant the concentration lethal to half of the exposed cells or organisms. By TGI is commonly meant the concentration at which net growth stops. For `COC(=O)CCC(=O)C1=C(C)/C(=C/c2[nH]c(-c3ccc[nH]3)cc2OC)N=C1C`, the GI50 is 0.794 µM, the LC50 is 12.3 µM and the TGI is 3.24 µM.
The like results for `COC(=O)CCCCC(=O)C1=C(C)/C(=C/c2[nH]c(-c3ccc[nH]3)cc2OC)N=C1C` were, in that order, 0.646 µM, 6.46 µM and 2.24 µM.
Consider `CCc1c(-c2ccc[nH]2)[nH]c(/C=C2\N=C(C)C(C(=O)CCCCC(=O)OC)=C2C)c1C`, for which the GI50 is 9.33 µM, the LC50 is 83.2 µM and the TGI is 33.9 µM.
On the same counts, the results for `COC(=O)CCCCCCCCC(=O)C1=C(C)/C(=C/c2[nH]c(-c3ccc[nH]3)cc2OC)N=C1C` are 16.2 µM, 95.5 µM and 67.6 µM.
On the same counts, the results for `COc1cc(-c2ccc[nH]2)[nH]c1/C=C1\N=C(C)C(C(C)=O)=C1C` [PRODIGIOSIN5] are 0.708 µM, 89.1 µM and 40.7 µM.
Regarding `CCOC(=O)C1=C(C)/C(=C/c2[nH]c(-c3ccc[nH]3)cc2OC)N=C1C` [PRODIGIOSIN 4], halving of growth (GI50) required 0.0468 µM, the LC50 is 12.3 µM and the TGI is 1.1 µM.
For the molecule `CCCCCC1=C/C(=C/c2[nH]c(-c3ccc[nH]3)cc2OC)N=C1C` [PRODIGIOSIN CHLORIDE], the GI50 is 0.0141 µM and the TGI is 2.09 µM.

The values above are taken from ChEMBL document CHEMBL1142989, “Synthesis and anti-cancer activity of C-ring-functionalized prodigiosin analogues” (2007).
